Measured values taken from patent publication US11999749B2, “Synthesis of a bis-mesylate salt of 4-amino-N-(1-((3-chloro-2-fluorophenyl)amino)-6-methylisoquinolin-5-yl)thieno[3,2-d]pyrimidine-7-carboxamide and intermediates thereto” (Genentech, Inc., priority 2021, dated 2024).

Columns and labels:
[1] = solubility screen of 1b in organic solvents; type: physicochemical
Description: This is notwithstanding the previously established solubility of 1b in NMP; that solvent should not be used due to its toxicity and the allowed limit of ˜500 ppm in the final pharmaceutical product. The limit for NMP is considerably lower than the 5,000 ppm permitted for DMSO. One of the reasons for relying on the recrystallization step is to remove an excess of NMP from the final product.
The selection of an appropriate anti-solvent is based at least in part on good miscibility with the other solvent(s) being used, low solubility of the solid form (to give desired form), and the ability to effectively remove impurities. To ensure the best control and purge of inorganic impurities in the crude product, water was selected as the anti-solvent. To this end, a more detailed solubility study of the crude material in DMSO/water mixtures at 10, 70, 75 and 80° C. indicated a steep dependence of the solubility of 1b on water content, with temperature having a smaller impact on recovery yield.

[2] = hygroscopicity of the salt forms; type: physicochemical; conditions: relative to the bis-HCl salt

Question: What does the source list for `Cc1ccc2c(Nc3cccc(Cl)c3F)nccc2c1NC(=O)c1csc2c(N)ncnc12` [Compound 1b, 4-amino-N-(1-((3-chloro-2-fluorophenyl)amino)-6-methylisoquinolin-5-yl)thieno[3,2-d]pyrimidine-7-carboxamide bis-mesylate]?
Answer: solubility ([1]; in DMSO): sufficient solubility; solubility ([1]; in most organic solvents, initial solubility screen): exceptionally low solubility; hygroscopicity [2]: lower hygroscopicity
